ChEMBL document CHEMBL1201862, “PubChem BioAssay data set” (2004)
The source made the active and inactive calls.

Columns and labels:
[1] = molecular target: T1, Sentrin-specific protease 6 (Homo sapiens, UniProt Q9GZR1); type: functional;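 note: Luminescence-based dose-response confirmatory assay of SENP6 inhibition, following up an ultra-high-throughput screen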
T1 sequence (Q9GZR1 whole entry): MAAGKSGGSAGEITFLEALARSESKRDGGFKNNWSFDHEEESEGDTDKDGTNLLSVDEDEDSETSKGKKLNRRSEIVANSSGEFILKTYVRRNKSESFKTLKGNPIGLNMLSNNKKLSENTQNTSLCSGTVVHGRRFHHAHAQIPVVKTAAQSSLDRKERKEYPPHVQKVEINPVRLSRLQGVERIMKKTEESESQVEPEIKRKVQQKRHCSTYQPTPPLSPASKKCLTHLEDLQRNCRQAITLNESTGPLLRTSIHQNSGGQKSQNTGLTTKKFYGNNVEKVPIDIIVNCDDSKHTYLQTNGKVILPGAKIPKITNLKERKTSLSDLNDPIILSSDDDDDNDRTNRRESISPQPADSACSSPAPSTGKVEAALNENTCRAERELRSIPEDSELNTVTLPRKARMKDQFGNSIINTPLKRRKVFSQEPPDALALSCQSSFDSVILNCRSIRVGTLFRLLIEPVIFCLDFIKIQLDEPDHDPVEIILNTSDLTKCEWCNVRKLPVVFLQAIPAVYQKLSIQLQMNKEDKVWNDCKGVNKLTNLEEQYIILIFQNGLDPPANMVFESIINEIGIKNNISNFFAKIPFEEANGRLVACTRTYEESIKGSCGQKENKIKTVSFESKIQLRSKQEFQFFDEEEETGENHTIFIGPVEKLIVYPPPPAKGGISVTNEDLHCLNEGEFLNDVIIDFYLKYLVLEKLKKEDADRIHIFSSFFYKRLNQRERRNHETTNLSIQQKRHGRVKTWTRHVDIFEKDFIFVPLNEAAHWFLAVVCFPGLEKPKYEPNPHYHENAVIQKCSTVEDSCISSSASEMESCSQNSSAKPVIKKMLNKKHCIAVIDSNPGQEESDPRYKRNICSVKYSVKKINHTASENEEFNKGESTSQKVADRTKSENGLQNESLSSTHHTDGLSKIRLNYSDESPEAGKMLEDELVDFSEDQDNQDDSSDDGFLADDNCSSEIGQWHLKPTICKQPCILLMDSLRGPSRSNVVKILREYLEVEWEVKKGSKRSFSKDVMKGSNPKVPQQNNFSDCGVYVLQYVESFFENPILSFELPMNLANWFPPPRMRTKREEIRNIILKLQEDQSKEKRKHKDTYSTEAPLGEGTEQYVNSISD

Caspase-3 = molecular target: T2, Caspase-3 (Homo sapiens, UniProt P42574); type: functional;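 note: Dose-response selectivity test against caspase-3 for candidate inhibitors of sentrin-specific proteases (SENPs)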
T2 sequence (P42574 whole entry): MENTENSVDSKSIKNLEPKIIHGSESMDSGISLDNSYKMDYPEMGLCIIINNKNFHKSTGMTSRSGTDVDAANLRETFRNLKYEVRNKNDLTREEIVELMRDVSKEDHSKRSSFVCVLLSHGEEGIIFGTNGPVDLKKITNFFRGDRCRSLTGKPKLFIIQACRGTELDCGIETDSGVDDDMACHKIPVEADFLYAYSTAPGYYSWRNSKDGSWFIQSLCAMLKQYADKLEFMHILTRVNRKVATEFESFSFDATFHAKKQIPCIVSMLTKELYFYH

[2] = molecular target: T3, Sentrin-specific protease 8 (Homo sapiens, UniProt Q96LD8); type: functional;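 note: luminescence read-out of SENP8 inhibition, dose-response confirmation following an ultra-high-throughput screen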
T3 sequence (Q96LD8 whole entry): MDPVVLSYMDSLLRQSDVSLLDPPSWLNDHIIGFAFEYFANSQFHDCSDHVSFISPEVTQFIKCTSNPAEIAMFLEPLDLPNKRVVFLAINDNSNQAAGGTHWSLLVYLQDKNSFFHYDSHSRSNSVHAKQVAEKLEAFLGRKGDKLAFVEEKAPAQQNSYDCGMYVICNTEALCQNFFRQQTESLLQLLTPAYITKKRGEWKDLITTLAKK

[3] = molecular target: T4, Sentrin-specific protease 7 (Homo sapiens, UniProt Q9BQF6); type: functional;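 note: Luminescence-based dose-response confirmation of ultra-high-throughput screening hits, measuring inhibition of SENP7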
T4 sequence (Q9BQF6 whole entry): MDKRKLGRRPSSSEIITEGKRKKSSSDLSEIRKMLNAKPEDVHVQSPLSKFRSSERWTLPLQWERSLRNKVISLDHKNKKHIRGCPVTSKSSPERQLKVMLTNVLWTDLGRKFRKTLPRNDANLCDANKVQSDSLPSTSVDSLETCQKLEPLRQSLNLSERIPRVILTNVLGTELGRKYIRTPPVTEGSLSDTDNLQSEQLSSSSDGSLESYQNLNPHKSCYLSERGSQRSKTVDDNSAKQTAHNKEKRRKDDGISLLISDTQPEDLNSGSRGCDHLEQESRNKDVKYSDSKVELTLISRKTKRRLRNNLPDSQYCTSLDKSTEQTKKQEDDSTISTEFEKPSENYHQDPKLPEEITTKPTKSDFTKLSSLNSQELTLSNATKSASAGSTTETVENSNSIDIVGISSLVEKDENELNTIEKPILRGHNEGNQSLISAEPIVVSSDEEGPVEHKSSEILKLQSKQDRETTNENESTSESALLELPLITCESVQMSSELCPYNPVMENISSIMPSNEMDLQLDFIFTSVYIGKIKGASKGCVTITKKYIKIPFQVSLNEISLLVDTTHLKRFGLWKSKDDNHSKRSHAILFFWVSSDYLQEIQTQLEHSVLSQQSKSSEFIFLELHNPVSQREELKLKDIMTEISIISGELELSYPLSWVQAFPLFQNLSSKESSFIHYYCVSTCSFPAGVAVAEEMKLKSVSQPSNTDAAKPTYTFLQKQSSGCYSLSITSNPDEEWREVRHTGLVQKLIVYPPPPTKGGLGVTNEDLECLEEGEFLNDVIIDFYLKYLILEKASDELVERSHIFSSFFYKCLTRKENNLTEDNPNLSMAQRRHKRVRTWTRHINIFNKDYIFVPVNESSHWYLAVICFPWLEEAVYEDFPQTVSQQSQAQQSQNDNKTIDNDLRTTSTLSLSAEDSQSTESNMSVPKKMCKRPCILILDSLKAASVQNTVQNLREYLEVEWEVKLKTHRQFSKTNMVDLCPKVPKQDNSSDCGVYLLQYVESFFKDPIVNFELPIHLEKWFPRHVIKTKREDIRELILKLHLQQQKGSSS

[4] = viability of uninfected HEp-2 cells – cell-based, HTS, cytotoxicity control for RSV inhibitor project, dose response (AID 2410); type: functional; conditions: human respiratory syncytial virus
[5] = molecular target: T5, Short transient receptor potential channel 4 (Mus musculus, UniProt Q9QUQ5); experiment: calcium entry via TRPC4 opening agents – cell-based, HEK293 TRPC4/mu-opioid, Fluo-4 calcium, dose response (AID 434937); type: functional
T5 sequence (Q9QUQ5 whole entry): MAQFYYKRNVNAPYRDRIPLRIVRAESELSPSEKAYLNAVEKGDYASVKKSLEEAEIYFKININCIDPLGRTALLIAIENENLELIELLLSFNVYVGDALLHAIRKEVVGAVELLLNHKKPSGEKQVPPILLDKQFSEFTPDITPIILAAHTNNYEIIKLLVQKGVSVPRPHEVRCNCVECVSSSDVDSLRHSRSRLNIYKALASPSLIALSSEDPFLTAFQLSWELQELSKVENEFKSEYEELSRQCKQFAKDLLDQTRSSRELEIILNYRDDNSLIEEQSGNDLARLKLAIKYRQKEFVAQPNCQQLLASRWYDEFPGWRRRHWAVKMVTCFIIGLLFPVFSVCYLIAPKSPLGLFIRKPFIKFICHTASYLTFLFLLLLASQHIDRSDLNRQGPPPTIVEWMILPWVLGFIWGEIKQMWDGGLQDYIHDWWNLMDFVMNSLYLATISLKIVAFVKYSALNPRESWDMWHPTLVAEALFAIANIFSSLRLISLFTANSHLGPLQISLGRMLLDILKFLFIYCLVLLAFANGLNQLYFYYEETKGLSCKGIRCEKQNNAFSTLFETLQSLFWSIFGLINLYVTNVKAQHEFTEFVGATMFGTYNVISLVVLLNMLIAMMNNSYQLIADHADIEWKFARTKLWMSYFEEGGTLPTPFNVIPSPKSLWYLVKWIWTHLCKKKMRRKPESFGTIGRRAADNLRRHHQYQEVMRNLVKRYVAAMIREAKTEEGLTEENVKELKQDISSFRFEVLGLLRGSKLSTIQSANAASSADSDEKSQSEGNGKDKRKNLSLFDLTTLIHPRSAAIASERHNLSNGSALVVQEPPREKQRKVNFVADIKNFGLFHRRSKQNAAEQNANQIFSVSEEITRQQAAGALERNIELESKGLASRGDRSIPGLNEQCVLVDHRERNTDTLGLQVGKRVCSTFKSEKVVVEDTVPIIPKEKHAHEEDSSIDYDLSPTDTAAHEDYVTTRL

[6] = alpha-synuclein stem-loop luciferase translation blockers – H4 neuroglioma cells, luminescence, confirmation (AID 1988); type: functional, cell-based
[7] = luciferase reporter signal suppression in cells – H4 neuroglioma cells, luminescence, dose response (AID 1990); type: functional, cell-based
[8] = Luminescence Cell-Based Dose Response HTS to Identify Inhibitors of 5'UTR Stem-Loop Driven Prion Protein mRNA Translation in H4 Neuroglioblastoma Cells. [Related pubchem assays: 1827 (Project Summary), 1813 (Primary HTS)]; type: functional
[9] = molecular target: T6, Polyadenylate-binding protein 1 (Homo sapiens, UniProt P11940); experiment: MLLE binding blockers, Cy5 peptide tracer – biochemical, fluorescence polarization, Cy5-PAM2 peptide, secondary, miRNA deadenylation inhibitor project, dose response (AID 602260); type: functional; conditions: read-out: IC50_Mean
[10] = Trypanosoma cruzi growth suppression in host cells – NIH3T3 host cells, beta-gal luminescence, confirmation (AID 2044); type: functional, cell-based;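 note: intracellular parasites grown in NIH/3T3 mouse fibroblasts as host cells; luminescent beta-galactosidase reporter signal from transgenic T. cruzi replicating inside host cells; inhibitors lower the luminescence signal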
[11] = molecular target: T6, Polyadenylate-binding protein 1; experiment: MLLE domain peptide-binding blockers, IC50 – biochemical, fluorescence polarization, FITC-PAM2 peptide, dose response (AID 602259); type: functional; conditions: read-out: IC50_Mean
[12] = NIH3T3 cell viability loss – ATP luminescence, mouse fibroblasts, counter-screen, dose response (AID 2010); type: functional, cell-based;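 note: cells exposed to compound for about 90 hours before reading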
[13] = reduction of Shn3 3'UTR-driven luciferase in osteoblasts – cell-based, Clone20 osteoblasts, firefly luciferase, cherry-picked, dose response (AID 624132); type: functional;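 note: firefly luciferase luminescence from reporter carrying the Shn3 3'UTR in osteoblasts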
[14] = non-specific 3'UTR reporter inhibition in Clone20-Shn3RL – cell-based, Renilla luciferase, cherry-picked, counter-screen for Shn3 inhibitor project, dose response (AID 624133); type: functional
INS1 = experiment: INS-1E survival protection against cytokine death – cell-based, luminescence, retest, dose response (AID 449756); type: functional; conditions: Rattus norvegicus;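 note: cell death triggered by IL-1 beta plus TNF-alpha plus IFN-gamma mixture; protective hits raise ATP signal compared with cytokine alone wells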
[15] = loss of viability in HepG2 cells – cell-based, CellTiter-Glo, cherry-picked, cytotoxicity control for Shn3 inhibitor project, dose response (AID 624134); type: functional
[16] = microbe, parasite or virus in culture; type: functional; conditions: Mycobacterium tuberculosis
H4 = experiment: Luminescence Cell-Based Dose Response HTS to Identify Activators of 5'UTR Stem-Loop Driven Prion Protein mRNA Translation in H4 Neuroglioblastoma Cells. [Related pubchem assays: 1829 (Project Summary), 1814 (Primary HTS)]; type: functional; conditions: Homo sapiens
[17] = Luminescence Cell-Based Dose Response HTS to Identify Activators of Luciferase Translation or Activity in H4 […] Cells. [Related pubchem assays: 1829 (Project Summary), 1814 (Primary HTS)]; type: functional
[18] = Luminescence Cell-Based Dose Confirmation HTS to Identify Activators of 5'UTR Stem-Loop Driven Alpha-Synuclein mRNA Translation in H4 Neuroglioblastoma Cells. [Related pubchem assays: 1829 (Project Summary), 1814 (Primary HTS)]; type: functional
[19] = Luminescence Cell-Based Dose Retest to Confirm Inhibitors of Cancer Stem Cells. [Related pubchem assays (depositor defined):AID2717, AID2721]; type: functional; conditions: Homo sapiens

T6 sequence (P11940 whole entry): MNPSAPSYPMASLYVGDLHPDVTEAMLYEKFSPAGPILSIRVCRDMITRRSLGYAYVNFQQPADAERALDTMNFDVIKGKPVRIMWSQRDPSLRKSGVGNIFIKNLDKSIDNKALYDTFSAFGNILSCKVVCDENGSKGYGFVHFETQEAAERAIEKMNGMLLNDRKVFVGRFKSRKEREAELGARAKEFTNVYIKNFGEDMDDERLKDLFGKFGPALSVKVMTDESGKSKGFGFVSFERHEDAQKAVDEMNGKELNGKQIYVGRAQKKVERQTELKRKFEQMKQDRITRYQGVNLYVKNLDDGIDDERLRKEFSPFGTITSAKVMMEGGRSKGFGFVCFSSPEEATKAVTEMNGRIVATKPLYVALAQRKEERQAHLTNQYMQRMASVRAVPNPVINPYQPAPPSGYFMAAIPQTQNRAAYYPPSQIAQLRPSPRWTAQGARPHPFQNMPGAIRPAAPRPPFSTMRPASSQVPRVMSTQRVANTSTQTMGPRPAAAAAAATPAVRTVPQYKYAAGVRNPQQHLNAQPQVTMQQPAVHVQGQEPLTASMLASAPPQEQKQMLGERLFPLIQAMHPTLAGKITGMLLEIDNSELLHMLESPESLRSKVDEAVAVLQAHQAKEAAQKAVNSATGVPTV

N=c1oc2ccccc2cc1C(=O)Nc1ccccc1
IC50 [1]: 15.6 µM (active)
IC50 (Caspase-3): 13.6 µM (active)
IC50 [2]: > 100 µM (inactive)
IC50 [3]: 11.4 µM (active)

O=C(Oc1ccc2ccccc2c1Cl)N1CCCCCC1
CC50 [4]: 27.6 µM (active)
IC50 [1]: 10.6 µM (active)
IC50 (Caspase-3): 17.4 µM (active)
IC50 [2]: 15.4 µM (active)
IC50 [3]: 7.15 µM (active)

Cc1ccc(Oc2cc(-n3nc(C)cc3C)ncn2)cc1
IC50 [1]: 35.7 µM (active)
IC50 (Caspase-3): 23.5 µM (active)
IC50 [2]: 54.7 µM (active)
IC50 [3]: 9.25 µM (active)

Cc1csc2c(N3CCN(C(S)=Nc4ccc(F)cc4F)CC3)ncnc12
EC50 [5]: 1.88 µM (active)

CN(C)CCCN(C(=O)c1ccc(S(=O)(=O)N2CCCc3ccccc32)cc1)c1nc2ccc(F)cc2s1
EC50 [6]: > 120 µM (not active)
EC50 [5]: 2.37 µM (active)
EC50 [7]: 12.6 µM (active)
EC50 [8]: > 120 µM (not active)

Sc1nnc2c3ccccc3n(CCc3ccccc3)c2n1
IC50 [9]: > 66 µM (inactive)
CC50 [4]: 23.8 µM (active)
EC50 [10]: 2.69 µM (active)
IC50 [11]: > 66 µM (inactive)
EC50 [12]: > 60 µM (not active)

COc1ccccc1/C=C/CN1CCC(n2nccc2NC(=O)CCc2ccccc2)CC1
AC50 [13]: 1.91 µM (active)
AC50 [14]: 4.23 µM (active)
AC50 (INS1): 5.75 µM (active)
AC50 [15]: 42.3 µM (active)

COc1cc(/C=C/C(=O)Nc2nnc(C(C)(C)C)s2)cc(OC)c1OC
IC50 [9]: > 66 µM (inactive)
IC50 [11]: > 66 µM (inactive)

CC(=O)c1cc(-c2ccccc2)[nH]c1N1CCOCC1
IC50 [9]: > 66 µM (inactive)
IC50 [11]: > 66 µM (inactive)

COc1ccc(C2CC(c3cccs3)=Nc3ccccc3S2)cc1 (configuration not stated)
CC50 [16]: > 40 µM (active)
IC50 [9]: > 66 µM (inactive)
EC50 (H4): 7.12 µM (active)
IC50 [11]: > 66 µM (inactive)
EC50 [17]: 9.21 µM (active)
EC50 [18]: 7.19 µM (active)

Cc1ccc(C)c(S(=O)(=O)N2CCN(c3ncnc4sccc34)CC2)c1
AC50 [13]: 0.631 µM (active)
AC50 [14]: 2.38 µM (active)
AC50 (INS1): 3.41 µM (active)
AC50 [15]: 2.55 µM (active)
AC50 [19]: 1.25 µM (active)

CN(CC(=O)Nc1ccccc1Cl)C(=O)c1cccc(S(=O)(=O)N2CCN(Cc3ccccc3)CC2)c1
AC50 [13]: 3.47 µM (active)
AC50 [14]: 4.83 µM (active)
AC50 [15]: 50.5 µM (active)

COc1ccc(Cc2c(C(C)(C)C)nc3c(C)cc(Br)cn23)c(C)c1
IC50 [9]: > 66 µM (inactive)
IC50 [11]: 52.7 µM (inactive)
